# According to ChEMBL document CHEMBL1201862, “PubChem BioAssay data set” (2004):
# Activity calls are given as the source filed them.
# Legend:
# [1] = target: Induced myeloid leukemia cell differentiation protein Mcl-1 (Homo sapiens, UniProt Q07820); type: functional
# [2] = target: Peroxisome proliferator-activated receptor gamma/Nuclear receptor coactivator 1 (Homo sapiens, UniProt P37231); assay: TR-FRET dose response biochemical High Throughput Screening assay for agonists of the steroid receptor coactivator 1 (SRC-1) recruitment by the peroxisome proliferator-activated receptor gamma (PPAR gamma): non-selective agonists. [Related pubchem assays (depositor defined):AID1300, AID1808, AID504735, AID631]; type: protein assay
# [3] = HepG2 cell cytotoxicity, dose response, cytotoxicity control for Shn3 inhibitor project, CellTiter-Glo, cherry-picked (AID 624134); type: functional, cell-based
# [4] = target: Eukaryotic translation initiation factor 4E (Mus musculus, UniProt P63073); assay: eIF4E–eIF4G protein interaction inhibitors, dose response, biochemical, TR-FRET (AID 855); type: functional;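 note: potency for disrupting eIF4E binding to eIF4GI seen as loss of FRET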
# [5] = target: Heat shock protein HSP 90-alpha (Homo sapiens, UniProt P07900); type: functional, organism-based
# [6] = Luminescence-based dose response cell-based high throughput screening assay for cytotoxic compounds using the IEC-6 intestinal epithelial cell line. [Related pubchem assays: 1858 (Summary AID.), 1825 (Counterscreen.), 1907 (Confirmation screen.)]; type: functional
# [7] = target: Peroxisome proliferator-activated receptor gamma/Nuclear receptor coactivator 2 (Homo sapiens, UniProt P37231); assay: (§1) TR-FRET dose response biochemical High Throughput Screening assay for agonists of the steroid receptor coactivator 2 (SRC-2) recruitment by the peroxisome proliferator-activated receptor gamma (PPAR gamma): non-selective agonists. [Related pubchem assays: 1297, 1032 ]; type: functional
# [8] = target: Nonstructural protein 1 (Influenza A virus, UniProt Q194T2); type: functional, Influenza A virus (A/California/07/2009(H1N1))
# [9] = target: G-protein coupled receptor 55 (Homo sapiens, UniProt Q9Y2T6); assay: GPR55 antagonists blocking LPI-driven arrestin recruitment, primary screen, imaging, U2OS, beta-arrestin-GFP, LPI agonist (AID 2013); type: functional;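 note: antagonist potency measured as reduced agonist-driven arrestin aggregation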
# [10] = target: Glucose-6-phosphate 1-dehydrogenase (Homo sapiens, UniProt P11413); assay: human G6PD enzyme inhibitors, dose response, selectivity assay for P. falciparum G6PD inhibitor project, biochemical, fluorescence (AID 504792); type: functional
# [11] = Shn3 3'UTR reporter inhibitors, dose response, cell-based, Clone20 osteoblasts, firefly luciferase, cherry-picked (AID 624132); type: functional;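 note: firefly luciferase luminescence from reporter carrying the Shn3 3'UTR in osteoblasts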
# [12] = target: Peroxisome proliferator-activated receptor gamma/Nuclear receptor coactivator 3 (Homo sapiens, UniProt P37231); assay: as §1, with “3 (SRC-3)” for “2 (SRC-2)”, “1301 (Confirmation screen.), 1048 (Primary screen.)]” for “1297, 1032 ]”; type: functional
# [13] = control 3'UTR Renilla luciferase suppression, dose response, counter-screen for Shn3 inhibitor project, cell-based, Clone20-Shn3RL, cherry-picked (AID 624133); type: functional
# [14] = target: T1, Tyrosine-protein phosphatase non-receptor type 12 (Homo sapiens, UniProt Q05209); assay: SAR Selectivity Analysis of small molecule inhibitors of PEST using pCAP in a fluorescence assay. [Related pubchem assays (depositor defined):AID1779, AID1784, AID2135]; type: functional
# T1 sequence (Q05209 whole entry): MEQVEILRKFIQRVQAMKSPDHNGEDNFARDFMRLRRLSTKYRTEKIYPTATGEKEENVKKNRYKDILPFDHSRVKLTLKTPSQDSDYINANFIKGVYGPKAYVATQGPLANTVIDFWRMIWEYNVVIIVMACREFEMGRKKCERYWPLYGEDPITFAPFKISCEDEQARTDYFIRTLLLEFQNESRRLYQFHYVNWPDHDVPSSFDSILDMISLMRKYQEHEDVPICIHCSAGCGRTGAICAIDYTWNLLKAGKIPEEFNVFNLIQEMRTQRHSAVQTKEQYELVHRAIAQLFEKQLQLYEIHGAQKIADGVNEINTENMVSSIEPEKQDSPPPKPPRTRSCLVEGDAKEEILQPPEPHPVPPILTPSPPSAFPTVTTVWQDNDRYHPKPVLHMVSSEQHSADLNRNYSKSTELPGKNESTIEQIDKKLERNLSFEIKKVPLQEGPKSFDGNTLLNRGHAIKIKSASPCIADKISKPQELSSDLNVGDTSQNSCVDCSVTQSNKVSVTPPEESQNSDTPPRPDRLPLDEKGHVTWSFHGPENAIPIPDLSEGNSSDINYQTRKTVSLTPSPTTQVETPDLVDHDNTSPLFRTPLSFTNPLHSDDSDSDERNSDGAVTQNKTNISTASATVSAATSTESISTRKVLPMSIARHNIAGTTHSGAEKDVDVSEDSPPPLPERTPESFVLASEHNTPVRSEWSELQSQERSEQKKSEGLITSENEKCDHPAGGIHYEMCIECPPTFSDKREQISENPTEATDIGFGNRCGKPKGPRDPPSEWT
# [15] = target: Dual specificity protein phosphatase 3 (Homo sapiens, UniProt P51452); assay: SAR VHR1 Fluorescent Assay for In Vitro dose response studies Set 2. [Related pubchem assays (depositor defined):AID1654, AID1661, AID1878]; type: functional
# [16] = target: T2, Dual specificity protein phosphatase 6 (Rattus norvegicus, UniProt Q64346); type: functional;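 note: confirmatory in vitro dose-response testing of MKP-3 inhibition; recombinant His-tagged MKP-3 made in E. coli BL21 with OMFP substrate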
# T2 sequence (Q64346 whole entry): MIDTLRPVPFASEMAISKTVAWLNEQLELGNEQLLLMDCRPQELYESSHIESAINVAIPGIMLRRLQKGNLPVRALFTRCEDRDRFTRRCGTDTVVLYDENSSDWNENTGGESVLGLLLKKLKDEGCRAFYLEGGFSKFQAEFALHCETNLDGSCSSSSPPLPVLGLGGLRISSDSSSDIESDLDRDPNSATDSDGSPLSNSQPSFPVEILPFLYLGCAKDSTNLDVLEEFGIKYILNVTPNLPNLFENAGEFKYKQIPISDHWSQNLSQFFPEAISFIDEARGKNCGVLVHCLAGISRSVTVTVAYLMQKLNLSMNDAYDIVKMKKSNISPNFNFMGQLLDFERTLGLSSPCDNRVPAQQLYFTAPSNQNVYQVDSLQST
# [17] = target: T3, Tyrosine-protein phosphatase non-receptor type 22 (Homo sapiens, UniProt Q9Y2R2); assay: SAR LYP1 Fluorescent Assay using OMFP substrate for In Vitro dose response studies - Set 3. [Related pubchem assays (depositor defined):AID1779, AID1784, AID2140, AID2686]; type: functional
# T3 sequence (Q9Y2R2 whole entry): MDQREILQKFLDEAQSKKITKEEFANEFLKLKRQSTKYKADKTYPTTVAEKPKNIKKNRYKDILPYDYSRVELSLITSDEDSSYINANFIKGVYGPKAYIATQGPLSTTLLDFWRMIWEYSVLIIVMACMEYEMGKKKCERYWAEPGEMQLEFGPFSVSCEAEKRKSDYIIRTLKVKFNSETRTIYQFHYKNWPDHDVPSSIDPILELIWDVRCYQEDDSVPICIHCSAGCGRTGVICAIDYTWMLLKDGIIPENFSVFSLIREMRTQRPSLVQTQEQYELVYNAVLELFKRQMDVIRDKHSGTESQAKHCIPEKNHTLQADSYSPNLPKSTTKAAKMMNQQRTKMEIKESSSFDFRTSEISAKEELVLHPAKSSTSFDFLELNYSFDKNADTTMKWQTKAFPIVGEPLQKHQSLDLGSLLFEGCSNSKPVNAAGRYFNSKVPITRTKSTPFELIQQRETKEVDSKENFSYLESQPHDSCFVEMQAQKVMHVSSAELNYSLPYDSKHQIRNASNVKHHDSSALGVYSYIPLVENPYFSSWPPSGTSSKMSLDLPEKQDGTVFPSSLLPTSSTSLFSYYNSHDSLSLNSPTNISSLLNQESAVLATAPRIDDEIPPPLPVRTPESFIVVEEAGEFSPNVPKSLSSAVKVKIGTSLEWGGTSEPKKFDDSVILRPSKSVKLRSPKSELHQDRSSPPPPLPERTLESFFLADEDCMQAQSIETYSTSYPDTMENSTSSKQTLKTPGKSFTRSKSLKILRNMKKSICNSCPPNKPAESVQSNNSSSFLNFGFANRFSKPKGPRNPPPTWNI
# [18] = target: T4, Tyrosine-protein phosphatase non-receptor type 7 (Homo sapiens, UniProt P35236); assay: redox-dependent HePTP inhibition, mechanism study, biochemical, fluorescence (AID 2068); type: functional
# T4 sequence (P35236 whole entry): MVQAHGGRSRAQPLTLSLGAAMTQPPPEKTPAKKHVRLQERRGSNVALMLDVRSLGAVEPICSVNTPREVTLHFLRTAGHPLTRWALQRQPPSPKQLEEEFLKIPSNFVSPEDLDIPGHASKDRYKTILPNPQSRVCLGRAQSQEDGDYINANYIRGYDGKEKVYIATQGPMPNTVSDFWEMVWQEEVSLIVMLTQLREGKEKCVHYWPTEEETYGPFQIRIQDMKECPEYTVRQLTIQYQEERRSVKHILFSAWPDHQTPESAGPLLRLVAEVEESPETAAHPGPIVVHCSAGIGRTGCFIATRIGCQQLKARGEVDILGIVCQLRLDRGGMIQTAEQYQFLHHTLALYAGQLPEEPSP
# [19] = target: T3, Tyrosine-protein phosphatase non-receptor type 22; assay: LYP (PTPN22) phosphatase inhibitor potency, SAR follow-up, biochemical, pCAP fluorogenic substrate, fluorescence, set 3 (AID 449727); type: functional
# [20] = system: T-cell; assay: inhibitors of CD8+ T cell–vesicle binding, dose response, mouse 2C CD8+ T cells, flow cytometry (AID 485284); type: functional
# Chain of Dual specificity protein phosphatase 3 (P51452 whole entry): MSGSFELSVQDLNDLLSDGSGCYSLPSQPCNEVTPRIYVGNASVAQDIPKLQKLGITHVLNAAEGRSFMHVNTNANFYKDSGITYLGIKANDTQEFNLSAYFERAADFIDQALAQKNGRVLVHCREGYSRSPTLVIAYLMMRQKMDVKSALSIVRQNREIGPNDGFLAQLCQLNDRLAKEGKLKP
# Chain of Induced myeloid leukemia cell differentiation protein Mcl-1 (Q07820 whole entry): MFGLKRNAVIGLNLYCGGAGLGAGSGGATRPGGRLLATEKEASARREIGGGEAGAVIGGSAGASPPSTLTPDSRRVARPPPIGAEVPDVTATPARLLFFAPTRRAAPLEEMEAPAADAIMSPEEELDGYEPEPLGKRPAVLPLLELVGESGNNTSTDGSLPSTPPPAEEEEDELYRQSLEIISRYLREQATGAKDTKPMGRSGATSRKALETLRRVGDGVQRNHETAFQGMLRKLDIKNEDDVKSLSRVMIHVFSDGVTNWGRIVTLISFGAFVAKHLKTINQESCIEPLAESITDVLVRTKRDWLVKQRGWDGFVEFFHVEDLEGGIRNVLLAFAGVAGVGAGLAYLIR
# Chain of Peroxisome proliferator-activated receptor gamma/Nuclear receptor coactivator 1 (P37231 whole entry): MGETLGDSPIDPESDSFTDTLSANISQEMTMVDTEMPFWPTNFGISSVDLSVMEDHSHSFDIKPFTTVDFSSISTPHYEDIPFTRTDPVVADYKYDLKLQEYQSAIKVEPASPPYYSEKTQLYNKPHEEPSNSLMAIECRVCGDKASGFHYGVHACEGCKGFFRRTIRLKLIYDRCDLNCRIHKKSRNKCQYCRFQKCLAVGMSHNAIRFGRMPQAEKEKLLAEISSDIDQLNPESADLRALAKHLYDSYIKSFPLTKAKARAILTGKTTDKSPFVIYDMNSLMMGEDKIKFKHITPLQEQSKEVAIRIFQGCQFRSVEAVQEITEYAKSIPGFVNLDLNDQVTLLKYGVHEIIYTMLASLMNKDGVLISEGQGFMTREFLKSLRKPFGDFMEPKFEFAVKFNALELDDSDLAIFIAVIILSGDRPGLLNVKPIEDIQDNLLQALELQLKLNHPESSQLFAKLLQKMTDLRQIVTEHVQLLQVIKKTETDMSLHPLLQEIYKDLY
# Chain of Peroxisome proliferator-activated receptor gamma/Nuclear receptor coactivator 1 (Q15788 whole entry, further chain): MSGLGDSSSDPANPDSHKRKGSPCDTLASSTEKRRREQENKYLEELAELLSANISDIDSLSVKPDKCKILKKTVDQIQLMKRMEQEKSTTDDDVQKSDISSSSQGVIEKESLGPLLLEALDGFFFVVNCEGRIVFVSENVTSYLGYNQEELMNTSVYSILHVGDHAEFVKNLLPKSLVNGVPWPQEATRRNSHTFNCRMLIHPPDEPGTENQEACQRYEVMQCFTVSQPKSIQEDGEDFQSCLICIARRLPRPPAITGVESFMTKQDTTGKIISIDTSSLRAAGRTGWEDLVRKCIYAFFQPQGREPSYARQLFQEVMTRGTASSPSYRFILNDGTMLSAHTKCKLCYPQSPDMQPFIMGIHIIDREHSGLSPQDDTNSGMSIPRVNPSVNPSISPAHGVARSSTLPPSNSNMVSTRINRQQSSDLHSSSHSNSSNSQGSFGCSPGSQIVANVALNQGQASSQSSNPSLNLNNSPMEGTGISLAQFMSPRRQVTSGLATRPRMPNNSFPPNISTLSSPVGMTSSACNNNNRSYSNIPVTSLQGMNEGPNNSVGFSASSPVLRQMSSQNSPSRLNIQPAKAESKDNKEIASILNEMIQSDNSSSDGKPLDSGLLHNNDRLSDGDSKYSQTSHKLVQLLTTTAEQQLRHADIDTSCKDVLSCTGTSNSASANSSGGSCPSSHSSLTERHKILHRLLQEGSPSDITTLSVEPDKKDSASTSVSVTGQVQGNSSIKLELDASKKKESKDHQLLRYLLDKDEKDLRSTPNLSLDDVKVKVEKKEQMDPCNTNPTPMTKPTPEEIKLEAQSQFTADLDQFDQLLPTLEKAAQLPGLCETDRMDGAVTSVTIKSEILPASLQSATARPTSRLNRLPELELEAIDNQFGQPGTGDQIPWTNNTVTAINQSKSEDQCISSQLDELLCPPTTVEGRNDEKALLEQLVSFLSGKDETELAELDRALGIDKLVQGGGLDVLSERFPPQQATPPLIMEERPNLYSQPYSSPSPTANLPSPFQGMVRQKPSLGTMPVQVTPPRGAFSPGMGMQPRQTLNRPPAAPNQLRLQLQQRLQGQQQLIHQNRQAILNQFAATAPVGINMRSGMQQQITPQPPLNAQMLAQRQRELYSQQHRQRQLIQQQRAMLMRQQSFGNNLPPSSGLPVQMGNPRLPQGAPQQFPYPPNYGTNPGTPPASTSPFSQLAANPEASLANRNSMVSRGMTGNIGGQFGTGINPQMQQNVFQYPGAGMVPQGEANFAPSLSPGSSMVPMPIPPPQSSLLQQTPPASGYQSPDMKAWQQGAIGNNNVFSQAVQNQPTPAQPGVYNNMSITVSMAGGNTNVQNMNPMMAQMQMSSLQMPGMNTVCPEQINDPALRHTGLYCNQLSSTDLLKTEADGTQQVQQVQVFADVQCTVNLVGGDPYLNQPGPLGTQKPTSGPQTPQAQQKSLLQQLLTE
# Chain of Peroxisome proliferator-activated receptor gamma/Nuclear receptor coactivator 2 (P37231 whole entry): as the sequence (P37231 whole entry) above
# Chain of Peroxisome proliferator-activated receptor gamma/Nuclear receptor coactivator 2 (Q15596 whole entry, further chain): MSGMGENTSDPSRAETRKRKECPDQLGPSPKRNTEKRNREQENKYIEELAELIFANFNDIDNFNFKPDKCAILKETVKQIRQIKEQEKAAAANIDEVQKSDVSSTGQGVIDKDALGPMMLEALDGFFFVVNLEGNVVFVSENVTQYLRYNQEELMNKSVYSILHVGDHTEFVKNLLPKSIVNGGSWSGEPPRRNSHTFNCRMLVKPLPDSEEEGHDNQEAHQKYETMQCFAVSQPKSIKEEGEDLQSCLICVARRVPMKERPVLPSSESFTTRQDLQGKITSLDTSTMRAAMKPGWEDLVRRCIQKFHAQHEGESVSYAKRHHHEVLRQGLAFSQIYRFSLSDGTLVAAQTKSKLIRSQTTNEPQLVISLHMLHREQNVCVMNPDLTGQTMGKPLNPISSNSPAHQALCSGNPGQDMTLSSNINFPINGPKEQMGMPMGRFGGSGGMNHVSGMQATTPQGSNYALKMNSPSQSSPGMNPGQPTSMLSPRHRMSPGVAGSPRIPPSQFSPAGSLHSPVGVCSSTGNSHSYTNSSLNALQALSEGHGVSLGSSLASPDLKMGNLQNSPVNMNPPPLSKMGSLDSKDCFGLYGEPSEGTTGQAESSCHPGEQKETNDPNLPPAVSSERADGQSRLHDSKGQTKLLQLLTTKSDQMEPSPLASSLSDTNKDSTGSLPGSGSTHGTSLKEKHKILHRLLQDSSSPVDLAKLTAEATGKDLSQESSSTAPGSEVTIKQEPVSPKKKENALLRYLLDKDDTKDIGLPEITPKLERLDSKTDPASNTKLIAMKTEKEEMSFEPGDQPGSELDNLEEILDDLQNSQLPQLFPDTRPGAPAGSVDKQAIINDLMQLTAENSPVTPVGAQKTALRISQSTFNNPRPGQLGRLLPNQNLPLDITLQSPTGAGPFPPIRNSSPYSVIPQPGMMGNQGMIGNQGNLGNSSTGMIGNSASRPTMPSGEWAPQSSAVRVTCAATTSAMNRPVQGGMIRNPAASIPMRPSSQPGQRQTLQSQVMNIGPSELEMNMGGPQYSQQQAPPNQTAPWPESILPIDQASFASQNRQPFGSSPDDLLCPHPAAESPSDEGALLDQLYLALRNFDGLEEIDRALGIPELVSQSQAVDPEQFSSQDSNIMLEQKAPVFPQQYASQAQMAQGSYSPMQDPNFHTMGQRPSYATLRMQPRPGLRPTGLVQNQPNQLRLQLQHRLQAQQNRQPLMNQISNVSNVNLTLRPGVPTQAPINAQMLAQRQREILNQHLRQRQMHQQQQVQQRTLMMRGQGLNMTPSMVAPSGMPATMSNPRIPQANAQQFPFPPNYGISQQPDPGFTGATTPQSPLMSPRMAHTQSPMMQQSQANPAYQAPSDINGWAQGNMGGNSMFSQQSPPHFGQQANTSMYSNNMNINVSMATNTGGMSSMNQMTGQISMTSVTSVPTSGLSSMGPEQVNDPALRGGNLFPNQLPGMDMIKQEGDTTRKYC
# Chain of Glucose-6-phosphate 1-dehydrogenase (P11413 whole entry): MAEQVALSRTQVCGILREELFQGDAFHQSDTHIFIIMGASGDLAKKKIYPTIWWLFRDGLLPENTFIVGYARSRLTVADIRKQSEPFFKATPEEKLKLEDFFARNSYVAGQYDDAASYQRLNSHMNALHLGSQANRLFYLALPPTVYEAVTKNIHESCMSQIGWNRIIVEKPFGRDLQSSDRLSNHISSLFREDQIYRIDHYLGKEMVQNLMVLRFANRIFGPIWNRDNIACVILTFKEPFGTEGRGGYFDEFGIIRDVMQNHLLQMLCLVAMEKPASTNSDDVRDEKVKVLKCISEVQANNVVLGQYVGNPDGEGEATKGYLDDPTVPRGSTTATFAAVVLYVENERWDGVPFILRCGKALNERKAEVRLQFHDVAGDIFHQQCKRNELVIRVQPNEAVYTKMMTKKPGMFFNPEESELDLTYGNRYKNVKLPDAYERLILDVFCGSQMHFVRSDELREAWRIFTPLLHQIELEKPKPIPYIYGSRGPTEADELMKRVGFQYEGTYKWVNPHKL
structure (smiles),measurement,setting,value
CN(C)c1ccc(/C=C/c2ccc3c4ccccc4ccc3[n+]2-c2ccccc2)cc1,IC50,[1],4.64 µM (not active)
same,EC50,[2],19.2 µM (inactive)
same,AC50,[3],2.21 µM (active)
same,IC50,[4],50 µM (inactive)
same,AC50,[5],3.19 µM (active)
same,IC50,[6],2.41 µM (active)
same,EC50,[7],17 µM (not active)
same,IC50,[8],2.36 µM (active)
same,IC50,[9],0.699 µM (active)
same,IC50,[10],> 80 µM (inactive)
same,AC50,[11],< 0.26 µM (active)
same,EC50,[12],85.7 µM (not active)
same,AC50,[13],4.32 µM (active)
COc1cc(/C=C2\SC(=O)N(CC(=O)Nc3cccc(C)c3)C2=O)cc(Cl)c1OCC(=O)O,IC50,[14],2.2 µM (active)
same,IC50,[15],17.9 µM (active)
same,IC50,[16],> 100 µM (inactive)
same,IC50,[17],4.96 µM (active)
same,IC50,[18],3.63 µM (active)
same,IC50,[19],3.69 µM (active)
O=C(OCCOc1cccc(Cl)c1)c1ccc(F)c(S(=O)(=O)N2CCOCC2)c1,EC50,[20],12.4 µM (active)
